How the values were obtained:
[1] = system: SJCRH30 (human alveolar rhabdomyosarcoma) cells; experiment: MTT cell viability assay in SJCRH30 cells; format: cell-based; settings: 24 h; for anti-proliferation / anti-cancer activity in SJCRH30 cells: in words; for IC50: Homo sapiens, Rhabdomyosarcoma cell, SJ-S drugs, SJCRH30 cells, read-out: IC50(μM) RMS
Text: (§1) The RD (human embryonal rhabdomyosarcoma) and CCD-18Co (human colon fibroblast) cell lines were purchased from the Korean Cell Line Bank (KCLB). SJCRH30 (human alveolar rhabdomyosarcoma) cell line was purchased from the American Type Culture Collection (ATCC). RD and CCD-18Co cells were maintained in Dulbecco’s Modified Eagle’s Medium (DMEM; Gibco) supplemented with 10% fetal bovine serum (FBS; Gibco) and 1% penicillin/streptomycin (P/S; Gibco). SJCRH30 cells were maintained in Roswell Park Memorial Institute medium (RPMI 1640, Gibco) supplemented with 10% FBS and 1% P/S. Cells were grown in a humidified chamber containing 5% CO2 at 37°C. Cell line authentication was performed by short tandem repeat profile using PowerPlex® 18D system (Promega Corporation) and sequencing apparatus Applied Biosystems 3130xl Genetic Analyzer (Applied Biosystem) according to manufacturer’s protocol.
(§2) SJCRH30, RD, and CCD-18Co cells were seeded at 2 × 10^4 cells/well in 96-well plates. The candidate drugs were treated for 24 h. AZ628, BIX02189, fedratinib, nutlin-3a, VX-11e, SB590885, NSC207895, tubastatin A, CX-5461, navitoclax, GSK1070916 and the FDA-approved drug library were purchased from Selleckchem. GW.44175 was purchased from Cayman chemical. MTT (3-(4,5-Dimethylthiazol-2-yl)-2,5-Diphenyltetrazolium bromide, Sigma) cell viability detection reagent diluted in serum free medium was added to each well and incubated for 2 h at 37°C. The supernatant was removed, and 50 μL DMSO was added to dissolve the precipitate. Absorbance was measured at 570 nm using a Molecular Devices VersaMax microplate reader and SoftMax® Pro 5 software. IC50 was calculated with GraphPad Prism 7 software.

[2] = system: CCD-18Co (human colon fibroblast) cells; experiment: MTT cell viability assay in normal control cells; format: cell-based; settings: normal cell control, 24 h, MTT
Text: as §1, §2

GDSC-RD cell line = settings: Table S2, published drug response ref Iorio et al. (2016); cited from earlier work
GDSC-SJCRH30 cell line = settings: Table S2, published drug response ref Iorio et al. (2016); cited from earlier work

CCn1cc(-c2ccnc3[nH]c(-c4cccc(CN(C)C)c4)cc23)c(-c2ccc(NC(=O)N(C)C)cc2)n1 [GSK1070916]
anti-proliferation / anti-cancer activity in SJCRH30 cells [1]: higher anti-cancer activity
IC50 [1]: 1.4 µM
IC50(μM) CCD-18Co [2]: No cytotoxicity
Iorio_RD (GDSC-RD cell line): R
Iorio_SJCRH30 (GDSC-SJCRH30 cell line): R

CC1(C)CCC(c2ccc(Cl)cc2)=C(CN2CCN(c3ccc(C(=O)NS(=O)(=O)c4ccc(N[C@H](CCN5CCOCC5)CSc5ccccc5)c(S(=O)(=O)C(F)(F)F)c4)cc3)CC2)C1 [Navitoclax]
anti-proliferation / anti-cancer activity in SJCRH30 cells [1]: higher anti-cancer activity
IC50 [1]: 0.764 µM
IC50 ([2]; Homo sapiens, CCD-18Co): 0.319 µM
Iorio_SJCRH30 (GDSC-SJCRH30 cell line): R

C=CC(=O)Nc1cc(-n2c(=O)ccc3cnc4ccc(-c5cn[nH]c5)cc4c32)ccc1C [QL-X-138]
Iorio_RD (GDSC-RD cell line): R
Iorio_SJCRH30 (GDSC-SJCRH30 cell line): R

CCc1cc(Nc2nccc(-c3c(-c4ccc(OC)c(C(=O)Nc5c(F)cccc5F)c4)nc4ccccn34)n2)c(OC)cc1N1CCC(N2CCN(S(C)(=O)=O)CC2)CC1 [GSK-1904529A]
Iorio_RD (GDSC-RD cell line): R
Iorio_SJCRH30 (GDSC-SJCRH30 cell line): R

CC[C@H](Nc1ncnc2[nH]cnc12)c1nc2cccc(F)c2c(=O)n1-c1ccccc1 [CAL-101]
Iorio_RD (GDSC-RD cell line): R
Iorio_SJCRH30 (GDSC-SJCRH30 cell line): R

CO[C@@H]1[C@H](N(C)C(=O)c2ccccc2)C[C@H]2O[C@]1(C)n1c3ccccc3c3c4c(c5c6ccccc6n2c5c31)C(=O)NC4 [Midostaurin]
Iorio_RD (GDSC-RD cell line): R
Iorio_SJCRH30 (GDSC-SJCRH30 cell line): R

C=C(c1ccc(C(=O)O)cc1)c1cc2c(cc1C)C(C)(C)CCC2(C)C [Bexarotene]
Iorio_RD (GDSC-RD cell line): R
Iorio_SJCRH30 (GDSC-SJCRH30 cell line): R

COc1cccc2c1C(=O)c1c(O)c3c(c(O)c1C2=O)C[C@@](O)(C(=O)CO)C[C@@H]3O[C@H]1C[C@H](N)[C@H](O)[C@H](C)O1 [Doxorubicin]
Iorio_RD (GDSC-RD cell line): R
Iorio_SJCRH30 (GDSC-SJCRH30 cell line): R

CCc1cncnc1N1CCN(Cc2nc3ccc(C(F)(F)F)cc3[nH]2)CC1 [PF-4708671]
Iorio_RD (GDSC-RD cell line): R
Iorio_SJCRH30 (GDSC-SJCRH30 cell line): R

CC(C)[C@H](C(=O)Nc1ccc(C(=O)NO)cc1)c1ccccc1 [AR-42]
Iorio_RD (GDSC-RD cell line): R
Iorio_SJCRH30 (GDSC-SJCRH30 cell line): R

CCn1c(-c2nonc2N)nc2c(C#CC(C)(C)O)ncc(OC[C@H]3CCCNC3)c21 [GSK690693]
Iorio_RD (GDSC-RD cell line): R
Iorio_SJCRH30 (GDSC-SJCRH30 cell line): S

CC(=O)Nc1nc(C)c(-c2ccc(Cl)c(S(=O)(=O)NCCO)c2)s1 [PIK-93]
Iorio_RD (GDSC-RD cell line): R
Iorio_SJCRH30 (GDSC-SJCRH30 cell line): R

O=C(/C=C/c1ccc(CN(CCO)CCc2c[nH]c3ccccc23)cc1)NO [LAQ824]
Iorio_RD (GDSC-RD cell line): R
Iorio_SJCRH30 (GDSC-SJCRH30 cell line): R

CN(C)C/C=C/C(=O)Nc1ccc(C(=O)Nc2cccc(Nc3ncc(Cl)c(-c4c[nH]c5ccccc45)n3)c2)cc1 [THZ-2-102-1]
Iorio_RD (GDSC-RD cell line): R
Iorio_SJCRH30 (GDSC-SJCRH30 cell line): R

CC1=C(C(=O)Nc2cc3cn[nH]c3cc2F)C(c2ccc(C(F)(F)F)cc2)CC(=O)N1 (centres unmarked) [GSK429286A]
Iorio_RD (GDSC-RD cell line): R
Iorio_SJCRH30 (GDSC-SJCRH30 cell line): R

CO[C@@]12[C@H](COC(N)=O)C3=C(C(=O)C(C)=C(N)C3=O)N1C[C@@H]1N[C@@H]12 [Mitomycin-C]
Iorio_RD (GDSC-RD cell line): R
Iorio_SJCRH30 (GDSC-SJCRH30 cell line): R

CC(C)N(CCCNC(=O)Nc1ccc(C(C)(C)C)cc1)C[C@H]1O[C@@H](n2cc(Br)c3c(N)ncnc32)[C@H](O)[C@@H]1O [SGC0946]
Iorio_RD (GDSC-RD cell line): R
Iorio_SJCRH30 (GDSC-SJCRH30 cell line): R

Cc1ccc(C(=O)Nc2cccc(C(F)(F)F)c2)cc1Nc1nc(-c2cccnc2)nc2c1cnn2C [NVP-BHG712]
Iorio_RD (GDSC-RD cell line): R
Iorio_SJCRH30 (GDSC-SJCRH30 cell line): R

COc1cc(O)c2c(c1)/C=C/C[C@H](O)[C@H](O)C(=O)/C=C\C[C@H](C)OC2=O [Oxozeaenol]
Iorio_RD (GDSC-RD cell line): S
Iorio_SJCRH30 (GDSC-SJCRH30 cell line): R

CC(C)=CC[C@@H](O)C1=CC(=O)c2c(O)ccc(O)c2C1=O [Shikonin]
Iorio_RD (GDSC-RD cell line): R
Iorio_SJCRH30 (GDSC-SJCRH30 cell line): R

C[C@@H](N)c1ccc(C(=O)Nc2ccnc3[nH]ccc23)cc1 [Y-39983]
Iorio_RD (GDSC-RD cell line): R
Iorio_SJCRH30 (GDSC-SJCRH30 cell line): R

COc1ncc(-c2ccc3nccc(-c4ccnnc4)c3c2)cc1NS(=O)(=O)c1ccc(F)cc1F [GSK2126458]
Iorio_RD (GDSC-RD cell line): R
Iorio_SJCRH30 (GDSC-SJCRH30 cell line): R

O=S(=O)(O)c1ccc2cc(N=Nc3cc(S(=O)(=O)O)c4cccnc4c3O)ccc2c1 [NSC-87877]
Iorio_RD (GDSC-RD cell line): R
Iorio_SJCRH30 (GDSC-SJCRH30 cell line): R

Cc1ccc2nc(NCCN)c3ncc(C)n3c2c1 [BMS-345541]
Iorio_RD (GDSC-RD cell line): R
Iorio_SJCRH30 (GDSC-SJCRH30 cell line): R

Nc1ccn([C@@H]2O[C@H](CO)[C@@H](O)C2(F)F)c(=O)n1 [Gemcitabine]
Iorio_RD (GDSC-RD cell line): R
Iorio_SJCRH30 (GDSC-SJCRH30 cell line): R

CCCCCCCCCCCC1=C(O)C(=O)C=C(O)C1=O [Embelin]
Iorio_RD (GDSC-RD cell line): R
Iorio_SJCRH30 (GDSC-SJCRH30 cell line): R

COc1cccc2cc(-c3nc([C@H]4CC[C@H](C(=O)O)CC4)n4ncnc(N)c34)[nH]c12 [OSI-027]
Iorio_RD (GDSC-RD cell line): R
Iorio_SJCRH30 (GDSC-SJCRH30 cell line): R

O=C(Nc1cccc(Nc2ncc(Br)c(NCCc3cnc[nH]3)n2)c1)N1CCCC1 [BX-912]
Iorio_RD (GDSC-RD cell line): R
Iorio_SJCRH30 (GDSC-SJCRH30 cell line): R

COCC(=O)NC/C=C/c1ccc2ncnc(Nc3ccc(Oc4ccc(C)nc4)c(C)c3)c2c1 [CP724714]
Iorio_RD (GDSC-RD cell line): R
Iorio_SJCRH30 (GDSC-SJCRH30 cell line): R

O=c1[nH]cc(F)c(=O)[nH]1 [5-Fluorouracil]
Iorio_RD (GDSC-RD cell line): R
Iorio_SJCRH30 (GDSC-SJCRH30 cell line): R

COc1cc(/C=C/C(=O)N2CCC=CC2=O)cc(OC)c1OC [piperlongumine]
Iorio_RD (GDSC-RD cell line): S
Iorio_SJCRH30 (GDSC-SJCRH30 cell line): R

C=CCc1cccc(/C=N/NC(=O)CN2CCN(Cc3ccccc3)CC2)c1O [PAC-1]
Iorio_RD (GDSC-RD cell line): R
Iorio_SJCRH30 (GDSC-SJCRH30 cell line): R

Cc1cccc(-c2[nH]c(C(C)(C)C)nc2-c2ccc3nccnc3c2)n1 [SB52334]
Iorio_RD (GDSC-RD cell line): R
Iorio_SJCRH30 (GDSC-SJCRH30 cell line): R

Cc1ccc(F)c(NC(=O)Nc2ccc(-c3cccc4[nH]nc(N)c34)cc2)c1 [ABT-869]
Iorio_RD (GDSC-RD cell line): R
Iorio_SJCRH30 (GDSC-SJCRH30 cell line): R

N#CC(c1ccnc(NCCc2cccnc2)n1)c1nc2ccccc2s1 (centres unmarked) [AS601245]
Iorio_RD (GDSC-RD cell line): R
Iorio_SJCRH30 (GDSC-SJCRH30 cell line): R

Cc1cccc(-c2[nH]c(C(C)(C)C)nc2-c2ccc3c(c2)OCO3)n1 [SB-505124]
Iorio_RD (GDSC-RD cell line): R
Iorio_SJCRH30 (GDSC-SJCRH30 cell line): R

Cc1cnc(CNC(=O)c2c(=O)c3ccc(N4CCCN(C)CC4)nc3n3c2sc2ccccc23)cn1 [CX-5461]
Iorio_RD (GDSC-RD cell line): S
Iorio_SJCRH30 (GDSC-SJCRH30 cell line): R

CC(C)(C)c1nc(-c2cccc(NS(=O)(=O)c3c(F)cccc3F)c2F)c(-c2ccnc(N)n2)s1 [Dabrafenib]
Iorio_RD (GDSC-RD cell line): R
Iorio_SJCRH30 (GDSC-SJCRH30 cell line): R

Nc1ccc(C(=O)Nc2cccc(-c3nc(N4CCOCC4)c4oc5ncccc5c4n3)c2)cn1 [YM201636]
Iorio_RD (GDSC-RD cell line): R
Iorio_SJCRH30 (GDSC-SJCRH30 cell line): R

CCC/C=C/C=C/C(=O)O[C@H]1/C(=C/C(=O)OC)C[C@H]2C[C@H]([C@@H](C)O)OC(=O)C[C@H](O)C[C@@H]3C[C@H](OC(C)=O)C(C)(C)[C@](O)(C[C@@H]4C/C(=C/C(=O)OC)C[C@H](/C=C/C(C)(C)[C@]1(O)O2)O4)O3 [Bryostatin-1]
Iorio_RD (GDSC-RD cell line): R
Iorio_SJCRH30 (GDSC-SJCRH30 cell line): R

O=C(Nc1ccc(OC(F)(F)F)cc1)c1sccc1NCc1ccnc2ccccc12 [OSI-930]
Iorio_RD (GDSC-RD cell line): R
Iorio_SJCRH30 (GDSC-SJCRH30 cell line): R

CCOc1cc2ncc(C#N)c(Nc3ccc(F)c(Cl)c3)c2cc1NC(=O)/C=C/CN(C)C [EKB-569]
Iorio_RD (GDSC-RD cell line): R
Iorio_SJCRH30 (GDSC-SJCRH30 cell line): R

CCC1=C[C@@H]2CN(C1)Cc1c([nH]c3ccccc13)[C@@](C(=O)OC)(c1cc3c(cc1OC)N(C)[C@H]1[C@@](O)(C(=O)OC)[C@H](OC(C)=O)[C@]4(CC)C=CCN5CC[C@]31[C@@H]54)C2 [Vinorelbine]
Iorio_RD (GDSC-RD cell line): R
Iorio_SJCRH30 (GDSC-SJCRH30 cell line): R

Cn1nnc2c(C(N)=O)ncn2c1=O [Temozolomide]
Iorio_RD (GDSC-RD cell line): R
Iorio_SJCRH30 (GDSC-SJCRH30 cell line): R

Cc1ccc(-c2c(C(=O)CF)n(CCCO)c3ncnc(N)c23)cc1 [FMK]
Iorio_RD (GDSC-RD cell line): R
Iorio_SJCRH30 (GDSC-SJCRH30 cell line): R

CCc1c2c(nc3ccc(O)cc13)-c1cc3c(c(=O)n1C2)COC(=O)[C@]3(O)CC [SN-38]
Iorio_RD (GDSC-RD cell line): R
Iorio_SJCRH30 (GDSC-SJCRH30 cell line): R

C[C@@]1(C(=O)Nc2ccc(F)nc2)CCCN1c1nc(Nc2cc(C3CC3)n[nH]2)c2cccn2n1 [BMS-754807]
Iorio_RD (GDSC-RD cell line): S
Iorio_SJCRH30 (GDSC-SJCRH30 cell line): S

B1: rTRAIL: GDSC anti-cancer compound (protein, UniProt P50591 1-281, looked up)
Tumor necrosis factor ligand …: MAMMEVQGGPSLGQTCVLIVIFTVLLQSLCVAVTYVYFTNELKQMQDKYSKSGIACFLKEDDSYWDPNDEESMNSPCWQVKWQLRQLVRKMILRTSEETISTVQEKQQNISPLVRERGPQRVAAHITGTRGRSNTLSSPNSKNEKALGRKINSWESSRSGHSFLSNLHLRNGELVIHEKGFYYIYSQTYFRFQEEIKENTKNDKQMVQYIYKYTSYPDPILLMKSARNSCWSKDAEYGLYSIYQGGIFELKENDRIFVSVTNEHLIDMDHEASFFGAFLVG
Iorio_RD (GDSC-RD cell line): S
Iorio_SJCRH30 (GDSC-SJCRH30 cell line): R
